The values that follow come from ChEMBL document CHEMBL1201862, “PubChem BioAssay data set” (2004).

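Step 1: Grow cells in 96-well plates. Step 2: Expose to compound for 48 hours at 5 concentrations. Step 3: Interpolate endpoints linearly; if unreached, use highest concentration. The concentration for 50% growth inhibition is given as GI50.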 Activity calls are given as the source filed them. No stated cut-off is given here; in the data, active = GI50 up to about 1.1 µM and inactive = higher.

Some test systems named below: U-251; OVCAR-5; UACC-62; SW-620; SF-268; CAKI-1; UACC-257; HCC 2998; UO-31; 786-0; CCRF-CEM; A549; IGROV-1; LOX IMVI; MDA-MB-231; NCI/ADR-RES; MCF7; MDA-MB-435; DU-145.
Holding throughout (assay): DTP human tumour cell line panel, 48 h

For `COc1ccc(NC(=O)CCc2cc(-c3ccc(O)c(OC)c3)nc(NC#N)n2)cc1`, the GI50 in the assay with U-251, with OVCAR-5, with UACC-62, in the assay with SW-620, in the assay on SF-268 and in the assay on CAKI-1 was > 100 µM (inactive) throughout. For the same compound, the GI50 with UACC-257, in the assay with HCC 2998, in the assay on UO-31, in the assay on 786-0, in the assay on CCRF-CEM and with A549 was > 100 µM (inactive) throughout. Moreover, the GI50 in the assay with IGROV-1 and in the assay with LOX IMVI was > 100 µM (inactive) in each case.

Consider `COc1ccc(C2ON(c3ccccn3)CC=C2C)cc1` (stereo unspecified), for which the GI50 with U-251 was > 100 µM (inactive); with OVCAR-5, 36.5 µM (inactive); with UACC-62, > 100 µM (inactive); with SW-620 it was > 100 µM (inactive); in the assay with SF-268, > 100 µM (inactive); with CAKI-1, > 100 µM (inactive). The GI50 is > 100 µM (inactive) with UACC-257; > 100 µM (inactive) with HCC 2998; 34.5 µM (inactive) in the assay on UO-31; > 100 µM (inactive) in the assay on 786-0; > 100 µM (inactive) in the assay with CCRF-CEM; > 100 µM (inactive) in the assay on A549. For the same compound, the GI50 in the assay on IGROV-1 and in the assay with LOX IMVI was > 100 µM (inactive) throughout.

`COC(=O)c1c(O)ccc2c1c1c(n2Cc2ccc(OC)cc2)C(=O)c2ccccc2C1`: the GI50 in the assay on U-251 is 47.3 µM (inactive); with MDA-MB-231, 32.4 µM (inactive); in the assay on UACC-62, > 100 µM (inactive); in the assay with SW-620 it was 82.8 µM (inactive); in the assay on NCI/ADR-RES, 32.9 µM (inactive); with SF-268 it was 30.3 µM (inactive). Moreover, the GI50 in the assay on MCF7 is 22.4 µM (inactive); in the assay with MDA-MB-435 it was 45.7 µM (inactive); in the assay with CAKI-1, 20.6 µM (inactive); with UACC-257, 44.4 µM (inactive); in the assay with UO-31, 41.6 µM (inactive); with 786-0, 53.2 µM (inactive). Besides, the GI50 in the assay on CCRF-CEM is 21.9 µM (inactive); in the assay on DU-145, > 100 µM (inactive); with A549 it was 45.9 µM (inactive); in the assay on IGROV-1, 21.6 µM (inactive); in the assay on LOX IMVI, 57.7 µM (inactive).

With `CSc1nc2nccnc2c(=O)[nH]1`, the GI50 in the assay on U-251, in the assay with OVCAR-5, in the assay with UACC-62, with SW-620, with SF-268 and with CAKI-1 was > 100 µM (inactive) in each case. For the same compound, the GI50 in the assay with UACC-257, in the assay with HCC 2998, in the assay with UO-31, in the assay on 786-0, in the assay on CCRF-CEM and with A549 was > 100 µM (inactive) throughout. Also, the GI50 in the assay with IGROV-1 and in the assay on LOX IMVI was > 100 µM (inactive) in each case.

`Cc1cc(C)n2c(-c3ccccc3)c(C)cc2n1`: the GI50 in the assay on U-251 is 34 µM (inactive); in the assay with OVCAR-5, > 100 µM (inactive); with UACC-62, 28.2 µM (inactive); with SW-620, 34 µM (inactive); in the assay with SF-268, > 100 µM (inactive); in the assay on CAKI-1 it was 30.9 µM (inactive). In addition, the GI50 was > 100 µM (inactive) with UACC-257; 34.8 µM (inactive) in the assay on HCC 2998; 34.9 µM (inactive) in the assay with UO-31; 78 µM (inactive) with 786-0; 1.09 µM (active) in the assay on CCRF-CEM; 75.5 µM (inactive) in the assay with A549. Moreover, the GI50 with IGROV-1 is 66.2 µM (inactive); in the assay on LOX IMVI, 65 µM (inactive).

On to `CO/N=C(/C(=O)Nc1c[n+](CC(=O)[O-])cs1)c1csc(N)n1`, for which the GI50 in the assay on U-251, in the assay with OVCAR-5, in the assay on UACC-62, in the assay with SW-620, in the assay with SF-268 and in the assay with CAKI-1 was > 100 µM (inactive) in each case. Further, the GI50 in the assay with UACC-257, in the assay with HCC 2998, in the assay with UO-31, with 786-0, in the assay with CCRF-CEM and with A549 was > 100 µM (inactive) each time. The GI50 with IGROV-1 and in the assay on LOX IMVI was > 100 µM (inactive) throughout.

Regarding `CCOC(=O)C1=C(C)NC2=C(C(=O)N(c3ccccc3)C2c2ccccc2)C1c1ccccc1` (stereo unspecified), the GI50 in the assay with U-251 is 15.1 µM (inactive); with OVCAR-5 it was 16.3 µM (inactive); with UACC-62 it was 12.6 µM (inactive); in the assay on SW-620 it was 19.8 µM (inactive); with SF-268, 15.7 µM (inactive); with CAKI-1, 16 µM (inactive). Also, the GI50 with UACC-257 is 18.2 µM (inactive); in the assay with HCC 2998, 17.7 µM (inactive); in the assay with UO-31, 19.8 µM (inactive); with 786-0, 18.9 µM (inactive); with CCRF-CEM, 21.2 µM (inactive); in the assay with A549, 17.8 µM (inactive). Moreover, the values for the GI50 in the assay with IGROV-1 and in the assay on LOX IMVI were 15.4 µM (inactive) and 18.1 µM (inactive), respectively.

As to `NC(=O)CC[C@H]1C(=O)N=C(N)N1C(=O)OCc1ccccc1`, the GI50 with U-251, in the assay with OVCAR-5, in the assay on MDA-MB-231, in the assay with UACC-62, in the assay on SW-620 and in the assay on NCI/ADR-RES was > 100 µM (inactive) in each case. Besides, the GI50 in the assay with SF-268, with MCF7, with MDA-MB-435, with CAKI-1, with UACC-257 and in the assay on HCC 2998 was > 100 µM (inactive) in each case. Besides, the GI50 with UO-31, in the assay on 786-0, with DU-145, in the assay with IGROV-1 and in the assay on LOX IMVI was > 100 µM (inactive) each time.

`CCOP(=O)(OCC)C1CCCOC1=O` (stereo unspecified): the GI50 in the assay with U-251, in the assay with OVCAR-5, with UACC-62, in the assay with SW-620, in the assay with SF-268 and in the assay with CAKI-1 was > 100 µM (inactive) in each case. Besides, the GI50 in the assay on UACC-257, in the assay with HCC 2998, in the assay with UO-31, with 786-0, in the assay with CCRF-CEM and with A549 was > 100 µM (inactive) throughout. Further, the GI50 with IGROV-1 and with LOX IMVI was > 100 µM (inactive) each time.

Regarding `COc1cc(-c2nn3c(=O)n(-c4ccc(Cl)cc4)c(=O)nc3s2)cc(OC)c1OC`, the GI50 with U-251 was 18 µM (inactive); in the assay with OVCAR-5 it was > 100 µM (inactive); with UACC-62, > 50 µM (inactive); in the assay on SW-620, > 100 µM (inactive); in the assay on SF-268 it was > 50 µM (inactive); with CAKI-1, 18.2 µM (inactive). Also, the GI50 in the assay on UACC-257 was > 58.7 µM (inactive); with HCC 2998 it was > 100 µM (inactive); with UO-31, > 76.6 µM (inactive); with 786-0, 12.3 µM (inactive); with CCRF-CEM, > 100 µM (inactive); in the assay on A549, 41 µM (inactive). In addition, the GI50 is > 89.1 µM (inactive) in the assay on IGROV-1 and 18.5 µM (inactive) with LOX IMVI.

On to `C=C(c1ccccc1)c1cc2c(=O)[nH]ccc2n1C`, for which the GI50 in the assay on OVCAR-5 is 44.2 µM (inactive); in the assay on UACC-62 it was 28.5 µM (inactive); in the assay on SW-620 it was 28.5 µM (inactive); with SF-268 it was 33.3 µM (inactive); with CAKI-1, 33.2 µM (inactive); in the assay on UACC-257, 37.1 µM (inactive). Moreover, the GI50 in the assay with HCC 2998 is 35 µM (inactive); in the assay with UO-31 it was 18.5 µM (inactive); in the assay with 786-0, 27.5 µM (inactive); in the assay with CCRF-CEM, 31.3 µM (inactive); in the assay with A549, 31.7 µM (inactive); with IGROV-1, 44.4 µM (inactive). For the same compound, the GI50 in the assay on LOX IMVI is 37.2 µM (inactive).

For `Clc1ccc(-c2nnc(-c3nn(-c4ccccc4)c4nc5ccccc5nc34)o2)cc1`, the GI50 with U-251 was 84.7 µM (inactive); in the assay with OVCAR-5, > 100 µM (inactive); in the assay with UACC-62, 67.8 µM (inactive); in the assay with SW-620, 62.4 µM (inactive); in the assay with SF-268, 69.3 µM (inactive); in the assay on CAKI-1 it was > 100 µM (inactive). For the same compound, the GI50 with UACC-257 was 67.5 µM (inactive); with HCC 2998, > 100 µM (inactive); in the assay on UO-31, > 100 µM (inactive); in the assay on 786-0, > 100 µM (inactive); in the assay on CCRF-CEM, 28.2 µM (inactive); in the assay on A549 it was > 100 µM (inactive). For the same compound, the GI50 in the assay with IGROV-1 was 65.3 µM (inactive); in the assay with LOX IMVI, > 100 µM (inactive).

Consider `C(=C\C(Sc1ccccc1)c1ccccc1)/NNC1=NN=C(c2ccccc2)C(c2ccccc2)N1` (stereo unspecified), for which the GI50 is 30 µM (inactive) in the assay on U-251; 35.5 µM (inactive) in the assay with OVCAR-5; 21.5 µM (inactive) with UACC-62; 21.8 µM (inactive) in the assay on SW-620; > 100 µM (inactive) in the assay on SF-268; 24.8 µM (inactive) with CAKI-1. Moreover, the GI50 with UACC-257 is > 100 µM (inactive); in the assay on HCC 2998 it was 27.7 µM (inactive); in the assay on UO-31 it was 18.8 µM (inactive); with 786-0, 65.2 µM (inactive); with CCRF-CEM, 10.2 µM (inactive); in the assay on A549, 58.7 µM (inactive). Also, the GI50 in the assay with IGROV-1 is 68.5 µM (inactive); in the assay with LOX IMVI it was 51.9 µM (inactive).

As for `CC1CCC2(NC1)OC1CC3[C@@H]4CC=C5C=CCC[C@]5(C)C4CC[C@]3(C)C1C2C` (stereo partly specified), the GI50 in the assay with U-251 was 28.3 µM (inactive); with OVCAR-5 it was 23.6 µM (inactive); in the assay with UACC-62, 21 µM (inactive); in the assay on SW-620 it was 19.7 µM (inactive); with SF-268, 28.6 µM (inactive); with CAKI-1 it was 26.3 µM (inactive). The GI50 in the assay with UACC-257 was 22.5 µM (inactive); in the assay with HCC 2998, 17.2 µM (inactive); in the assay on UO-31, 21.8 µM (inactive); in the assay with 786-0 it was 16.6 µM (inactive); in the assay with CCRF-CEM, 21 µM (inactive); in the assay on A549, 24 µM (inactive). The GI50 with IGROV-1 is 30.3 µM (inactive); with LOX IMVI, 17.9 µM (inactive).
